Test results published in PubChem BioAssay AID1963437 (Molecular Pharmacology Branch, DTP, NCI, 2024).

Test system: OVCAR-8 complex spheroid, growth inhibition
Assay: Anticancer human tumor OVCAR-8 cell line growth inhibition [Asc];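 also: spheroids exposed to agents for 7 days before readout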;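 as to viability, T/C: percent viability relative to DMSO vehicle wells taken as 100%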
Conditions: for IC50: curve of first compound; for viability, T/C: stronger effect = lower value
How it was run: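 Stromal components (HUVEC and hMSC) are co-assembled with the cancer cells into multicellular spheroids. Drugs are then added singly or paired, at concentrations falling by half-log increments from a clinically achievable maximum, capped at 10 microM without known Cmax.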

C=C(F)C(=O)N1CCN(c2nc(OCC3CCCN3C)nc3c2CCN(c2cccc4cccc(Cl)c24)C3)CC1CC#N (centres undefined) + Cc1c(S(C)(=O)=O)c(-c2cc(F)cc(N3CCN(c4ccc(NS(=O)(=O)c5ccc(NC(CCN6CCC(C(=O)OCCCP(=O)(O)O)CC6)CSc6ccccc6)c(S(=O)(=O)C(F)(F)F)c5)cc4)CC3)c2)c(-c2ccc(Cl)cc2)n1C(C)C
IC50 (second compound 0.0316 µM): 2330 nM | IC50 (second compound 0.1 µM): 2240 nM | IC50 (second compound 0.316 µM): 2320 nM | IC50 (second compound 1 µM): 2510 nM | IC50 (second compound 3.16 µM): 2250 nM | IC50 (second compound 10 µM): 2150 nM | viability, T/C (second compound 0.0316 µM, first compound 0.0316 µM): 102% | viability, T/C (second compound 0.0316 µM, first compound 0.1 µM): 92.4% | viability, T/C (second compound 0.0316 µM, first compound 0.316 µM): 91.8% | viability, T/C (second compound 0.0316 µM, first compound 1 µM): 102% | viability, T/C (second compound 0.0316 µM, first compound 3.16 µM): 33% | viability, T/C (second compound 0.0316 µM, first compound 10 µM): 2.02% | viability, T/C (second compound 0.1 µM, first compound 0.0316 µM): 95.6% | viability, T/C (second compound 0.1 µM, first compound 0.1 µM): 94.3% | viability, T/C (second compound 0.1 µM, first compound 0.316 µM): 97.7% | viability, T/C (second compound 0.1 µM, first compound 1 µM): 111% | viability, T/C (second compound 0.1 µM, first compound 3.16 µM): 28.5% | viability, T/C (second compound 0.1 µM, first compound 10 µM): 0.39% | viability, T/C (second compound 0.316 µM, first compound 0.0316 µM): 90.3% | viability, T/C (second compound 0.316 µM, first compound 0.1 µM): 99.5% | viability, T/C (second compound 0.316 µM, first compound 0.316 µM): 98.7% | viability, T/C (second compound 0.316 µM, first compound 1 µM): 113% | viability, T/C (second compound 0.316 µM, first compound 3.16 µM): 31.5% | viability, T/C (second compound 0.316 µM, first compound 10 µM): 0.28% | viability, T/C (second compound 1 µM, first compound 0.0316 µM): 92.1% | viability, T/C (second compound 1 µM, first compound 0.1 µM): 88.2% | viability, T/C (second compound 1 µM, first compound 0.316 µM): 96% | viability, T/C (second compound 1 µM, first compound 1 µM): 114% | viability, T/C (second compound 1 µM, first compound 3.16 µM): 38.1% | viability, T/C (second compound 1 µM, first compound 10 µM): 1.17% | viability, T/C (second compound 3.16 µM, first compound 0.0316 µM): 102% | viability, T/C (second compound 3.16 µM, first compound 0.1 µM): 111% | viability, T/C (second compound 3.16 µM, first compound 0.316 µM): 93.2% | viability, T/C (second compound 3.16 µM, first compound 1 µM): 128% | viability, T/C (second compound 3.16 µM, first compound 3.16 µM): 25.5% | viability, T/C (second compound 3.16 µM, first compound 10 µM): 0.35% | viability, T/C (second compound 10 µM, first compound 0.0316 µM): 96.4% | viability, T/C (second compound 10 µM, first compound 0.1 µM): 73.3% | viability, T/C (second compound 10 µM, first compound 0.316 µM): 92.4% | viability, T/C (second compound 10 µM, first compound 1 µM): 121% | viability, T/C (second compound 10 µM, first compound 3.16 µM): 26.9% | viability, T/C (second compound 10 µM, first compound 10 µM): 1.06%

CCN1C(C(=O)NC23CCC(C(=O)O)(CC2)CC3)C(c2cccc(Cl)c2F)C2(C(=O)Nc3cc(Cl)ccc32)C12CCCCC2 (centres undefined) + Cc1c(S(C)(=O)=O)c(-c2cc(F)cc(N3CCN(c4ccc(NS(=O)(=O)c5ccc(NC(CCN6CCC(C(=O)OCCCP(=O)(O)O)CC6)CSc6ccccc6)c(S(=O)(=O)C(F)(F)F)c5)cc4)CC3)c2)c(-c2ccc(Cl)cc2)n1C(C)C
IC50 (second compound 0.0316 µM): > 3000 nM | IC50 (second compound 0.1 µM): > 3000 nM | IC50 (second compound 0.316 µM): > 3000 nM | IC50 (second compound 1 µM): > 3000 nM | IC50 (second compound 3.16 µM): > 3000 nM | IC50 (second compound 10 µM): > 3000 nM | viability, T/C (second compound 0.0316 µM, first compound 0.00949 µM): 92.4% | viability, T/C (second compound 0.0316 µM, first compound 0.03 µM): 99.1% | viability, T/C (second compound 0.0316 µM, first compound 0.0949 µM): 99.5% | viability, T/C (second compound 0.0316 µM, first compound 0.3 µM): 90% | viability, T/C (second compound 0.0316 µM, first compound 0.949 µM): 107% | viability, T/C (second compound 0.0316 µM, first compound 3 µM): 109% | viability, T/C (second compound 0.1 µM, first compound 0.00949 µM): 90.1% | viability, T/C (second compound 0.1 µM, first compound 0.03 µM): 95.8% | viability, T/C (second compound 0.1 µM, first compound 0.0949 µM): 94.8% | viability, T/C (second compound 0.1 µM, first compound 0.3 µM): 89.8% | viability, T/C (second compound 0.1 µM, first compound 0.949 µM): 101% | viability, T/C (second compound 0.1 µM, first compound 3 µM): 105% | viability, T/C (second compound 0.316 µM, first compound 0.00949 µM): 108% | viability, T/C (second compound 0.316 µM, first compound 0.03 µM): 99.9% | viability, T/C (second compound 0.316 µM, first compound 0.0949 µM): 94.8% | viability, T/C (second compound 0.316 µM, first compound 0.3 µM): 105% | viability, T/C (second compound 0.316 µM, first compound 0.949 µM): 102% | viability, T/C (second compound 0.316 µM, first compound 3 µM): 125% | viability, T/C (second compound 1 µM, first compound 0.00949 µM): 109% | viability, T/C (second compound 1 µM, first compound 0.03 µM): 93.1% | viability, T/C (second compound 1 µM, first compound 0.0949 µM): 93.5% | viability, T/C (second compound 1 µM, first compound 0.3 µM): 106% | viability, T/C (second compound 1 µM, first compound 0.949 µM): 112% | viability, T/C (second compound 1 µM, first compound 3 µM): 144% | viability, T/C (second compound 3.16 µM, first compound 0.00949 µM): 118% | viability, T/C (second compound 3.16 µM, first compound 0.03 µM): 95.2% | viability, T/C (second compound 3.16 µM, first compound 0.0949 µM): 88.3% | viability, T/C (second compound 3.16 µM, first compound 0.3 µM): 101% | viability, T/C (second compound 3.16 µM, first compound 0.949 µM): 98.8% | viability, T/C (second compound 3.16 µM, first compound 3 µM): 144% | viability, T/C (second compound 10 µM, first compound 0.00949 µM): 113% | viability, T/C (second compound 10 µM, first compound 0.03 µM): 104% | viability, T/C (second compound 10 µM, first compound 0.0949 µM): 106% | viability, T/C (second compound 10 µM, first compound 0.3 µM): 86.7% | viability, T/C (second compound 10 µM, first compound 0.949 µM): 132% | viability, T/C (second compound 10 µM, first compound 3 µM): 146%
